Here are results for 1 compound from PMC5897276, “External radiation exposure, excretion, and effective half-life in ^177Lu-PSMA-targeted therapies” (EJNMMI Research, 2018).

Values joined by “and” are separate entries in the source; they are usually repeats but may differ in a detail not shown here. Identical values can stand only once. Like-named read-outs stand apart in the source and are kept apart here. Marks after values point to notes of the source that are not given here.

Details of series [1]: method as in PMID 27089552. Particulars: cited from earlier work; for Mean dose rate at 1 m: 23 patients, 7.5 GBq.
Series [2] is described as follows: Whole-body dose rate measurement at a distance of 2 m and calculation of effective half-life. It is filed as in vivo, patients. The conditions noted are these: for Calculated effective half-life T1/2eff, max / Calculated effective half-life T1/2eff, mean / Calculated effective half-life T1/2eff, min: mono-exponential fit of dose rate. As to the method:
The measurements and analyses were carried out with 50 patients from both departments as characterized in Table 1. All patients of Department 2 were released from the hospital 72 h p. i. for organizational reasons. Therefore, dose rate measurements were also available for ti = 72 h p. i.
In both departments, the dose rate monitor LB 123 D-H10 (Berthold Technologies, Bad Wildbad, Germany) was used, which is suitable for dose rate levels between 0.05 μSv/h and 10 mSv/h within an energy range from 30 keV to 1.3 MeV. The systems were officially calibrated, and regular quality checks were carried out. The patients were measured in the standing position from the anterior (DRA) and posterior (DRP) view at a distance of 2 m from the surface of the detector. The dose rate DR for different time points (see Table 1) was then calculated as the geometric mean of both measurements5 DRti=DRAti∙DRPti.
The data were fitted by a mono-exponential curve, and the effective half-life was calculated for the different time points: 24, 48, and 72 h (only from the data of Department 2). […] For all comparisons, the time point 48 h was chosen as the reference, because it is standard that the patients are released from the therapy ward after 48 h. Subsequently, Eq. 4 was used to determine the dose D to the public after the discharge of the patient for different time points of release (24, 48, and 72 h p. i.), substituting T1/2eff by T1/2ind (individual half-life of each patient), T1/2phys (physical half-life of ^177Lu), and T1/2max (maximum of the calculated effective half-life of the patient cohort) for different calculations. In addition, a correlation analysis (Spearman and Pearson) of the dose rate and administered activity was performed.

Setting [3] is: time point 24.2 ± 0.7 h (from 2 h/4 h and 24 h).
Where [4] appears, read: time point 67.7 ± 2.3 h (72 h; from 24, 48 and 72 h), 25 patients (Department 2).
The mark [5] stands for this setting: time point 45.7 ± 2.1 h p. i. (48 h).
Where [6] appears, read: time point 67.7 ± 2.3 h p. i. (72 h), 25 patients (Department 2).

With `O=C([O-])CN1CCN(CC(=O)[O-])CCN(CC(=O)NCC2CCC(C(=O)N[C@@H](Cc3ccc4ccccc4c3)C(=O)NCCCC[C@H](NC(=O)N[C@@H](CCC(=O)O)C(=O)O)C(=O)O)CC2)CCN(CC(=O)[O-])CC1.[177Lu+3]` (stereo partly drawn) [^177Lu-PSMA-617], the “Mean dose rate at 1 m” value was 23 ± 6 μSv/h in series [1] (after 4 h) and 15 ± 4 μSv/h in series [1] (after 6 h). Besides, the “Mean dose received by close family members” value in series [1] (measured for 5 days post-injection with optically stimulated luminescence dosimeter, patients released 6 h p. i.) is on record as 202 ± 43 μSv. Besides, the “Calculated effective half-life T1/2eff, max” value in series [2] (setting [3]) is 73.5 h; in series [2] (setting [4]) it was 74.5^a h. Moreover, the “Calculated effective half-life T1/2eff, mean” value is reported as 26.0 h in series [2] (setting [3]) and 38.4^a h in series [2] (setting [4]). The “Calculated effective half-life T1/2eff, min” value in series [2] (setting [3]) is 11.0 h; in series [2] (time point 45.7 ± 2.1 h (48 h; from 24 h and 48 h)) it was 21.7 h; in series [2] (setting [4]) it was 25.7^a h. The “Dose rate (measured at a distance of 2 m), max” value was 5.0 μSv/h in series [2] (time point 2 ± 0.3 h p. i.), 3.8 μSv/h in series [2] (time point 3.9 ± 0.7 h p. i.), 2.3 μSv/h in series [2] (setting [5]) and 2.1^a μSv/h in series [2] (setting [6]). For the same compound, the “Dose rate (measured at a distance of 2 m), mean” value in series [2] (time point 2 ± 0.3 h p. i.) is 3.6 ± 0.7 μSv/h and 3.6 μSv/h; in series [2] (time point 3.9 ± 0.7 h p. i.), 2.8 μSv/h; in series [2] (time point 24.2 ± 0.7 h p. i.), 1.6 ± 0.6 μSv/h and 1.6 μSv/h; in series [2] (setting [5]), 1.1 ± 0.5 μSv/h and 1.1 μSv/h; in series [2] (setting [6]), 0.7 ± 0.4 μSv/h and 0.7^a μSv/h. Further, the “Dose rate (measured at a distance of 2 m), min” value in series [2] (time point 2 ± 0.3 h p. i.) is recorded as 2.2 μSv/h; in series [2] (time point 3.9 ± 0.7 h p. i.), 1.3 μSv/h; in series [2] (time point 24.2 ± 0.7 h p. i.), 0.5 μSv/h; in series [2] (setting [5]), 0.4 μSv/h; in series [2] (setting [6]), 0.1^a μSv/h.
